Source: article PMC7919472, “Insulin–Mimetic Dihydroxanthyletin-Type Coumarins from Angelica decursiva with Protein Tyrosine Phosphatase 1B and α-Glucosidase Inhibitory Activities and Docking Studies of Their Molecular Mechanisms” (Antioxidants, 2021)

Key:
[1] = system: t-BHP-treated HepG2 cells; assay: Intracellular ROS level in t-BHP-treated HepG2 cells (DCFH-DA); type: cell-based, human; details: 200 μM t-BHP; for ROS generation: 10–40 μM
Procedure: A fluorometric assay was used to measure the intracellular ROS level in HepG2 cells applying the oxidant-sensitive fluorescence probe 2, DCFH-DA [47]. In order to determine the extent of intracellular ROS scavenging activity, HepG2 cells were seeded into black 96-well plates at a density of 2.0 × 10^5 cells/well and incubated with coumarins at a concentrations range of 2.5–40 µM for 1 h. To induce ROS production, cells were subsequently exposed to 200 µM tert-butyl hydroperoxide (t-BHP) for 30 min and were then incubated for 30 min with DCFH-DA (20 μM). At an excitation wavelength of 485 nm and an emission wavelength of 530 nm, the resulting fluorescence intensities were measured using a fluorescence microplate reader (FL × 800; Bio-Tek Instruments Inc., Winooski, UT, USA).

[2] = system: insulin-resistant HepG2 cells; assay: 2-NBDG glucose uptake assay; type: cell-based, human; details: 24 h, insulin-stimulated 2-NBDG uptake
Procedure: (§1) With minor modifications, the insulin resistant HepG2 cell model was developed according to the previous method. In short, in 96-well plats (2 × 10^5 cells/well), HepG2 cells were cultured. When they reached a confluence, 10^−6 M insulin was treated for 24 h on serum-free MEM to induce insulin resistance, then the cells were incubated for 30 min with 100 nM insulin and harvested for assays as described below.
In accordance with a previous method the glucose uptake assay was established with some modifications. Briefly, HepG2 cells were cultured in 96-well plate to confluence and then treated with 10^−6 M insulin for 24 h to induce insulin resistance (based on a 49% decrease in glucose uptake) (data not shown). Different coumarins (5–40 µM) or 10 µM metformin (non-cytotoxic concentration) concentrations were added and incubated for 24 h, followed by 100 nM insulin and cells incubation for 30 min, respectively. 2-NBDG uptake was measured following this incubation. The cells were incubated with 40 μM of 2-NBDG (dissolved in PBS with 1% BSA) for 20 min. The cells were washed thrice with ice-cold PBS to avoid the reaction, and the fluorescence intensity of 2-NBDG was calculated at 485 nm of excitation and 528 nm of emission on a microplate reader (Bio-Tek Instruments Inc., Winooski, VT, USA). Five replication wells have been set up, and three times each experiment has been replicated.

[3] = Total ROS generation inhibitory activity (rat kidney homogenate, DCFH-DA); type: biochemical; details: mean ± SEM of triplicate
Procedure: The generation of ROS was calculated using the ROS-sensitive fluorescence indicator (DCFH-DA) of 7-dichlorofluorescein diacetate. In a 50 mM potassium phosphate buffer, rat kidney homogenates (Tissue bank from Pusan National University, Busan, S. Korea) were prepared from the kidneys of newly killed male Wistar rats weighing between 150–200 g and 10 μg of each test sample was applied to 190 μL of kidney post mitochondrial fraction. The mixture was loaded in a potassium phosphate buffer with 50 μL of DCFH-DA (12.5 mM) and shaken for 5 min. On a microplate fluorescence spectrophotometer FLX 800 (Bio-Tek Instruments Inc., Winooski, UT, USA), the fluorescence of 2′,7′-dichlorofluorescein (DCF), the oxidation product from DCFH-DA, was measured at an excitation wavelength of 485 nm and an emission wavelength of 530 nm for 30 min. As a positive control, Trolox, was used.

[4] = ONOO− scavenging activity (DHR 123); type: biochemical; details: mean ± SEM of triplicate
Procedure: ONOO^− scavenging activity was measured using a slight modification of the method reported by Kooy’s that monitors output of fluorescent rhodamine 123 from non-fluorescent DHR 123 in the presence of ONOO^−. The rhodamine buffer (pH 7.4) consisted of 90 mM sodium chloride, 50 mM sodium phosphate dibasic, 5 mM potassium chloride, 100 µM diethylenetriaminepentaacetic acid and 50 mM sodium phosphate monobasic. DHR 123 final concentration was 5 µM. The buffer used in this assay was prepared and put on ice before use. In 10% DMSO, the samples were dissolved and authentic ONOO^− (10 µM) dissolved in 0.3 N sodium hydroxide was added. Background and final fluorescent intensities were measured after 5 min. The fluorescence intensity of the oxidized DHR 123 was measured with a microplate fluorescence reader (Bio-Tek Instruments, Inc., FLx 800, Winooski, UT, USA) on the excitation and emission wavelengths of 480 and 530 nm, respectively. As a standard control, L-penicillamine was used.

yeast α-glucosidase = yeast α-glucosidase (Saccharomyces cerevisiae, UniProt P53341); assay: α-Glucosidase inhibitory assay with pNPG substrate, with Dixon and Lineweaver-Burk kinetics; type: biochemical; details: determined by Dixon and Lineweaver-Burk plots
Chain of yeast α-glucosidase (P53341 whole entry): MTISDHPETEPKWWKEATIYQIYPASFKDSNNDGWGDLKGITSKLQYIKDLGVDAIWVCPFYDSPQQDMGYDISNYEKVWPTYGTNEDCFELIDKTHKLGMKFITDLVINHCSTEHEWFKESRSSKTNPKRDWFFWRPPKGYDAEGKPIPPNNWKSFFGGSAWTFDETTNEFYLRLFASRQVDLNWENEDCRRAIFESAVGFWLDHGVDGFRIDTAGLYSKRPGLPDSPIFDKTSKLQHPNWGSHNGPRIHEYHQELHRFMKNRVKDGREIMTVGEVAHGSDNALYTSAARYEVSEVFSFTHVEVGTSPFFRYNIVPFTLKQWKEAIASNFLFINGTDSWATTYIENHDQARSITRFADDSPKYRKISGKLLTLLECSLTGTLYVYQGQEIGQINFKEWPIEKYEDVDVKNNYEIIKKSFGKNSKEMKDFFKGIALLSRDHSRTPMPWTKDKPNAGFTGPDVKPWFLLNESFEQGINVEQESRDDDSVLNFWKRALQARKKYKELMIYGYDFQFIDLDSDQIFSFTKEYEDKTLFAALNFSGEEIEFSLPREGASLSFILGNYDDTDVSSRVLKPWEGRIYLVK
Procedure: The enzyme inhibition analysis was carried out using the technique previously reported in our paper. The absorbance was recorded at 405 nm immediately afterward using the microplate spectrophotometer (Molecular Devices, Sunnyvale, CA, USA).
(§2) Two kinetic methods using Lineweaver-Burk and Dixon plots have been complemented for the determination of the kinetic process. PTP1B inhibition mode was calculated at different pNPP substrate concentration (0.5, 1.0, and 2.0 mM) in the absence or presence of different coumarins test concentrations (0, 0.8, 4.0, and 20.0 µM for (+)-trans-decursidinol; 0, 2.0, 10.0, and 50 µM for Pd-C-I and Pd-C-II; 0, 4.0, 20.0, and 100 µM for Pd-C-III) using Lineweaver-Burk and Dixon plots. By monitoring the effects of different concentrations of the substrates in the Dixon plots (single reciprocal plot), each enzymatic inhibition of test coumarins was assessed. Additionally, in the presence of different concentrations of substrate: 2.5, 1.25, and 0.625 mM pNPG, the Lineweaver-Burk and Dixon plots for α-glucosidase inhibition of coumarins were also performed. The test concentrations of the coumarins in the α-glucosidase kinetic analysis were as follows 0, 7.81, 15.62, 31.25, and 62.5 µM for (+)-trans-decursidinol, Pd-C-I, and Pd-C-II; 0, 15.62, 31.25, 62.5, and 125 µM for Pd-C-III. The PTP1B and α-glucosidase assay methods were the same for both enzymatic procedures. The inhibition constants (Ki) were calculated by interpretation of the Dixon plots, where the value of the x-axis means -Ki.

[5] = Inhibition of ONOO−-mediated albumin (protein tyrosine) nitration, Western blot; type: biochemical
Procedure: ONOO^−-mediated protein tyrosine nitration was evaluated with minor modifications by using in our previously reported method.

[6] = system: PTP1B expression in insulin-resistant HepG2 cells; assay: PTP1B expression level by Western blot; type: cell-based, human
Procedure: as §1
Insulin-resistant HepG2 cells (5 × 10^5 cells/well) were treated for 24 h in 6-well plates with different concentrations of coumarins. The cells were washed with ice-cold PBS three times, collected, then lysed with a sample buffer [50 mM (4-(2-hydroxyethyl)-1-piperazineethanessulfonic acid) pH 7.5, 150 mM NaCl, 2.5 mM EDTA, 0.5% NP-40, 1 mM PMSF, 1 mM DTT, 0.2% aprotinin, 0.5% leupeptin, 20 mM NaF, and 1 mM Na3VO4] on ice after stimulation with 100 nM insulin at 37 °C for 30 min. Insoluble materials were extracted by centrifugation for 20 min at 25,000 × g after incubation for 30 min. An updated Bradford protein assay kit calculated the protein concentrations. Total protein (40 μg) was electrophoresed into a polyvinylidene difluoride (PVDF) membrane by use of a dodecyl sulfate-polyacrylamide gel electrophoresis (SDS-PAGE). In a blocking buffer, membranes were blocked (5% skim milk in Tris-buffered saline containing 0.1% Tween 20 (TBST) and incubated overnight at 4 °C with primary antibodies, followed by incubation at room temperature for 4 h with suitable secondary antibodies. Three times for 30 min with TBST, the membranes were washed. The Supersignal West Pico chemiluminescence substrate (Pierce, Rockford, IL, USA) has been used to visualize the protein bands and pictured on X-ray film (Kodak, Rochester, NY, USA) according to the manufacturer’s instructions. Using CS analyzer software (Atto Corp., Tokyo, Japan), bands were scanned and quantitated and the control was set to 1. As the internal control, β-actin was used. For determining the molecular weights of protein bands, prestained blue protein markers were used. Comparisons were made between mean band densities in same gels. Autoradiography visualized protein bands and measured the intensities using Quantity One software (Bio-Rad Laboratories, Hercules, CA, USA).

[7] = molecular target: T1, PTP1B (human recombinant) (Homo sapiens, UniProt P18031); assay: PTP1B inhibitory assay with pNPP substrate, with Dixon and Lineweaver-Burk kinetics; type: biochemical; details: for Protein Tyrosine Phosphatase 1B Inhibition Type: determined by Dixon and Lineweaver-Burk plots; for Ki: determined by the Dixon plot, read-out: Protein Tyrosine Phosphatase 1B Ki Value; for IC50: pNPP substrate, mean ± SEM of triplicate, read-out: Protein Tyrosine Phosphatase 1B IC50
T1 construct: purchased Biomol International LP (Plymouth Meeting, Pennsylvania, USA)
T1 sequence (P18031 1-435): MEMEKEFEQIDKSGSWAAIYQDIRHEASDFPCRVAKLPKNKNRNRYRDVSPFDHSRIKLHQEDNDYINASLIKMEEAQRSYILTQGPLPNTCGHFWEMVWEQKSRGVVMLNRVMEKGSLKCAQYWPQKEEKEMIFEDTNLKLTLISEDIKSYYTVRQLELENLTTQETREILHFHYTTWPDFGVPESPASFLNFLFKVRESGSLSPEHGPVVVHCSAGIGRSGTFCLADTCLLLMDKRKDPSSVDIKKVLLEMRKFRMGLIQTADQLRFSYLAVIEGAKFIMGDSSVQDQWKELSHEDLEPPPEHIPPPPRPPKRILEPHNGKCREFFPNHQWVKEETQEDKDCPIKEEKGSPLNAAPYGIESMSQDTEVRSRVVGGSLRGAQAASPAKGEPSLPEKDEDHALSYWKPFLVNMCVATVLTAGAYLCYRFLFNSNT
Procedure: The inhibitory activity of PTP1B has been tested using pNPP previously reported in our paper. The amount of p-nitrophenyl produced after enzymatic dephosphorylation of pNPP was calculated using a microplate spectrophotometer (Molecular Devices) to calculate absorbance at 405 nm.
as §2

[8] = Homo sapiens, HepG2, pretreated 1 h, read-out: ROS production, inhibition

SMILES | IC50 [3] | IC50 [4] | α-Glucosidase Inhibition Type (yeast α-glucosidase) | Protein Tyrosine Phosphatase 1B Inhibition Type [7] | Ki [7] | IC50 [7] | fold more active than decursinol ([7]; versus decursinol of the earlier work, enzyme not named in the sentence (PTP1B and α-glucosidase discussed)) | inhibition at 5 µM ([1]; Homo sapiens, HepG2, 5 μM, pretreated 1 h, read-out: ROS production, inhibition) | inhibition at 10 µM [1, 8] | inhibition at 15 µM ([1]; Homo sapiens, HepG2, 15 μM, pretreated 1 h, read-out: ROS production, inhibition) | relative glucose uptake percentage ([2]; 15 µM) | ONOO−-mediated albumin nitration ([5]; pretreatment at 5–40 µM) | PTP1B expression ([6]; at 10 and 15 µM, 24 h) | ROS generation [1] | relative glucose uptake percentage ([2]; 40 µM) | ONOO−-mediated albumin nitration ([5]; pretreatment at 12.5–100 µM) | PTP1B expression ([6]; concentration not given) | PTP1B expression ([6]; at 20 and 40 µM, 24 h) | relative glucose uptake percentage ([2]; 10 µM)
CC(C)(S)[C@H](N)C(=O)O [L-Penicillamine, L-penicillamine, reference compound] |  | 1.86 ± 0.11 µM |  |  |  |  |  |  |  |  |  |  |  |  |  |  |  |  | 
CC(C)=CC(=O)O[C@@H]1c2cc3ccc(=O)oc3cc2OC(C)(C)[C@H]1O [Pd-C-II] | 10.8 ± 0.73 µM | 3.77 ± 0.15 µM | Mixed | Competitive | 9.72 µM | 6.17 ± 0.31 µM |  |  |  |  |  |  |  | significantly inhibited ROS generation | 120% | pronounced dose-dependent inhibition |  | downregulated PTP1B’s expression | 
CN(C)C(=N)N=C(N)N [metformin, reference compound] |  |  |  |  |  |  |  |  |  |  |  |  |  |  |  |  |  |  | 129%

Continued, in another order:

IC50 [3] | IC50 [4] | α-Glucosidase Inhibition Type (yeast α-glucosidase) | Protein Tyrosine Phosphatase 1B Inhibition Type [7] | Ki [7] | IC50 [7] | fold more active than decursinol ([7]; versus decursinol of the earlier work, enzyme not named in the sentence (PTP1B and α-glucosidase discussed)) | SMILES | inhibition at 5 µM ([1]; Homo sapiens, HepG2, 5 μM, pretreated 1 h, read-out: ROS production, inhibition) | inhibition at 10 µM [1, 8] | inhibition at 15 µM ([1]; Homo sapiens, HepG2, 15 μM, pretreated 1 h, read-out: ROS production, inhibition) | relative glucose uptake percentage ([2]; 15 µM) | ONOO−-mediated albumin nitration ([5]; pretreatment at 5–40 µM) | PTP1B expression ([6]; at 10 and 15 µM, 24 h) | ROS generation [1] | relative glucose uptake percentage ([2]; 40 µM) | ONOO−-mediated albumin nitration ([5]; pretreatment at 12.5–100 µM) | PTP1B expression ([6]; concentration not given) | PTP1B expression ([6]; at 20 and 40 µM, 24 h) | relative glucose uptake percentage ([2]; 10 µM)
9.77 ± 0.32 µM | 4.57 ± 0.21 µM | Competitive | Competitive | 2.84 µM | 2.33 ± 0.07 µM | 25 times | CC1(C)Oc2cc3oc(=O)ccc3cc2[C@@H](O)[C@@H]1O [(+)-trans-decursidinol] | 75.5% | 57.5% | 43.4% | 125% | significantly inhibited in a concentration-dependent manner | diminished PTP1B’s expression |  |  |  |  |  | 
9.69 ± 0.21 µM | 1.44 ± 0.22 µM | Noncompetitive | Mixed | 16 µM | 12 ± 0.43 µM |  | C/C=C\C(=O)O[C@H]1[C@H](OC(C)=O)c2cc3ccc(=O)oc3cc2OC1(C)C [Pd-C-III] |  |  |  |  |  |  | significantly inhibited ROS generation | 117% | pronounced dose-dependent inhibition | significantly downregulated PTP1B’s expression |  | 
6.32 ± 0.41 µM | 1.82 ± 0.44 µM | Mixed | Competitive | 6.21 µM | 4.32 ± 0.12 µM |  | CC(C)=CC(=O)O[C@H]1[C@H](O)c2cc3ccc(=O)oc3cc2OC1(C)C [Pd-C-I] |  |  |  |  |  |  | significantly inhibited ROS generation | 128% | pronounced dose-dependent inhibition |  | downregulated PTP1B’s expression | 
3.29 ± 0.26 µM |  |  |  |  |  |  | Cc1c(C)c2c(c(C)c1O)CCC(C)(C(=O)O)O2 (centres unmarked) [Trolox, trolox, reference compound] |  | ~49% |  |  |  |  |  |  |  |  |  | 
